# Patent publication US8431702B2, “Therapeutically useful substituted hydropyrido [3,2,1-ij] quinoline compounds” (Allergan, Inc., priority 2008, dated 2013)
# Read-outs that look alike come from different tables or passages of the source.
# Target: T1, human S1P3 receptor (Homo sapiens, UniProt Q99500)
# T1 construct: expressed in transfected cells
# Experiment: FLIPR calcium (Fluo-4) assay for activation or block of activation of human S1P3 receptor in T24 cells
# Type: cell-based
# Description: The compounds of the invention are assessed for their ability to activate or block activation of the human S1P3 receptor in T24 cells stably expressing the human S1P3 receptor using the method described in paragraph [0067] of United States Patent Application Publication No. 20070232682, which published on Oct. 4, 2007, which is hereby incorporated by reference in its entirety.
# Ten thousands cells/well are plated into 384-well poly-D-lysine coated plates one day prior to use. The growth media for the S1P3 receptor expressing cell line is McCoy's 5A medium supplemented with 10% charcoal-treated fetal bovine serum (FBS), 1% antibiotic-antimycotic and 400 μg/ml geneticin. On the day of the experiment, the cells are washed twice with Hank's Balanced Salt Solution supplemented with 20 mM HEPES (HBSS/Hepes buffer). The cells are then dye loaded with 2 μM Fluo-4 diluted in the HBSS/Hepes buffer with 1.25 mM Probenecid and incubated at 37° C. for 40 minutes. Extracellular dye is removed by washing the cell plates four times prior to placing the plates in the FLIPR (Fluorometric Imaging Plate Reader, Molecular Devices). Ligands are diluted in HBSS/Hepes buffer and prepared in 384-well microplates. The positive control, Sphingosine-1-phosphate (S1P), is diluted in HBSS/Hepes buffer with 4 mg/ml fatty acid free bovine serum albumin. The FLIPR transfers 12.5 μl from the ligand microplate to the cell plate and takes fluorescent measurements for 75 seconds, taking readings every second, and then for 2.5 minutes, taking readings every 10 seconds. Compounds are tested over the concentration range of 0.61 nM to 10,000 nM. Data for calcium ion (Ca^+2) responses are obtained in arbitrary fluorescence units and not translated into Ca^+2 concentrations. IC50 values (nM) are determined through a […] analysis using the Levenburg Marquardt algorithm.
# [1] = T24 cells stably expressing the human S1P3 receptor, tested over 0.61 nM to 10,000 nM
# [2] = T24 cells stably expressing the human S1P3 receptor, tested over 0.61 nM to 10,000 nM, read-out: S1P3 IC50
# T1 sequence (Q99500 whole entry): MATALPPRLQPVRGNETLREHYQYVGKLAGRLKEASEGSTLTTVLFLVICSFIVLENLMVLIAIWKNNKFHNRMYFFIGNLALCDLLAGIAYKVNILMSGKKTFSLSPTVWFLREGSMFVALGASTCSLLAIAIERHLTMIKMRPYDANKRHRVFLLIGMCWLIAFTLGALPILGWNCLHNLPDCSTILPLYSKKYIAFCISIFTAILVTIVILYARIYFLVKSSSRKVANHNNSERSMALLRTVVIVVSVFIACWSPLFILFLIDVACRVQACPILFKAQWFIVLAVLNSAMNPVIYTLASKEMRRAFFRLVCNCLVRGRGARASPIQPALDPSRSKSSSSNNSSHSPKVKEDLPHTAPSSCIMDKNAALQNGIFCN
Structure (SMILES),S1P3 % Inhibition [1] [%],IC50 [2] [nM],IC50 [nM]
O=C(Nc1cc2c3c(c1)C(c1ccc(F)cc1)CCN3CCC2c1ccc(F)cc1)OCCF (stereo not shown) [Compound 067],98,8,–
"CCOC(=O)Nc1cc2c3c(c1)C(c1cccc(F)c1)CCN3CCC2c1cccc(F)c1 (stereo not shown) [Compound 093, Ethyl 1,7-bis(3-fluorophenyl)-1,2,3,5,6,7-hexahydropyrido[3,2,1-ij]quinolin-9-ylcarbamate]",102,–,–
"CCCOC(=O)Nc1cc2c3c(c1)C(c1cccc(F)c1)CCN3CCC2c1cccc(F)c1 (stereo not shown) [Compound 094, Propyl 1,7-bis(3-fluorophenyl)-1,2,3,5,6,7-hexahydropyrido[3,2,1-ij]quinolin-9-ylcarbamate]",101,–,–
"O=C(Nc1cc2c3c(c1)C(c1ccccc1)CCN3CCC2c1ccccc1)OCCF (stereo not shown) [Compound 095, 2-fluoroethyl 1,7-diphenyl-1,2,3,5,6,7-hexahydropyrido[3,2,1-ij]quinolin-9-ylcarbamate]",102,–,–
"CC(C)(C)NC(=O)Nc1cc2c3c(c1)C(c1ccccc1)CCN3CCC2c1ccccc1 (stereo not shown) [Compound 148, 1-tert-butyl-3-(1,7-diphenyl-1,2,3,5,6,7-hexahydropyrido[3,2,1-ij]quinolin-9-yl)urea]",101,–,–
"CCCCOC(=O)Nc1cc2c3c(c1)C(c1cccc(F)c1)CCN3CCC2c1cccc(F)c1 (stereo not shown) [Compound 202, Butyl 1,7-bis(3-fluorophenyl)-1,2,3,5,6,7-hexahydropyrido[3,2,1-ij]quinolin-9-ylcarbamate]",98,–,–
"O=C(Nc1cc2c3c(c1)C(c1ccccc1)CCN3CCC2c1ccccc1)OCCCCl (stereo not shown) [Compound 205, 3-chloropropyl 1,7-diphenyl-1,2,3,5,6,7-hexahydropyrido[3,2,1-ij]quinolin-9-ylcarbamate]",99,–,–
"O=C(Nc1cc2c3c(c1)C(c1ccccc1)CCN3CCC2c1ccccc1)OCCCCCl (stereo not shown) [Compound 206, 4-chlorobutyl 1,7-diphenyl-1,2,3,5,6,7-hexahydropyrido[3,2,1-ij]quinolin-9-ylcarbamate]",100,–,–
"CCNC(=O)Nc1cc2c3c(c1)[C@](C)(c1ccccc1)CCN3CC[C@@]2(C)c1ccccc1 [Compound 249, 1-((1S,7S)-1,7-dimethyl-1,7-diphenyl-1,2,3,5,6,7-hexahydropyrido[3,2,1-ij]quinolin-9-yl)-3-ethylurea]",100,194,–
"CCCNC(=O)Nc1cc2c3c(c1)[C@](C)(c1ccccc1)CCN3CC[C@@]2(C)c1ccccc1 [Compound 250, 1-((1S,7S)-1,7-dimethyl-1,7-diphenyl-1,2,3,5,6,7-hexahydropyrido[3,2,1-ij]quinolin-9-yl)-3-propylurea]",100,523,–
"CCCNC(=S)Nc1cc2c3c(c1)C(c1ccccc1)CCN3CCC2c1ccccc1 (stereo not shown) [Compound 255, 1-(1,7-diphenyl-1,2,3,5,6,7-hexahydropyrido[3,2,1-ij]quinolin-9-yl)-3-propylthiourea]",99,–,–
"CCCCCCNC(=S)Nc1cc2c3c(c1)C(c1ccccc1)CCN3CCC2c1ccccc1 (stereo not shown) [Compound 256, 1-(1,7-diphenyl-1,2,3,5,6,7-hexahydropyrido[3,2,1-ij]quinolin-9-yl)-3-hexylthiourea]",100,–,–
"O=C(NCc1ccoc1)Nc1cc2c3c(c1)C(c1ccccc1)CCN3CCC2c1ccccc1 (stereo not shown) [Compound 258, 1-(1,7-diphenyl-1,2,3,5,6,7-hexahydropyrido[3,2,1-ij]quinolin-9-yl)-3-(furan-3-ylmethyl)urea]",100,–,–
COC(=O)Nc1cc2c3c(c1)C(c1ccc(F)cc1)CCN3CCC2c1ccc(F)cc1 (stereo not shown) [Compound 268],98,5,–
"COC(=O)Nc1cc2c3c(c1)C(c1ccccc1)CCN3CCC2c1ccccc1 (stereo not shown) [Compound 272, methyl 1,7-diphenyl-1,2,3,5,6,7-hexahydropyrido[3,2,1-ij]quinolin-9-ylcarbamate]",102,–,–
"CCOC(=O)Nc1cc2c3c(c1)C(c1ccccc1)CCN3CCC2c1ccccc1 (stereo not shown) [Compound 273, Ethyl 1,7-diphenyl-1,2,3,5,6,7-hexahydropyrido[3,2,1-ij]quinolin-9-ylcarbamate]",101,–,–

Structure (SMILES),S1P3 % Inhibition [1] [%],IC50 [2] [nM],IC50 [nM]
"CC(C)COC(=O)Nc1cc2c3c(c1)C(c1ccccc1)CCN3CCC2c1ccccc1 (stereo not shown) [Compound 274, Isobutyl 1,7-diphenyl-1,2,3,5,6,7-hexahydropyrido[3,2,1-ij]quinolin-9-ylcarbamate]",100,–,–
"CCCOC(=O)Nc1cc2c3c(c1)C(c1ccccc1)CCN3CCC2c1ccccc1 (stereo not shown) [Compound 275, Propyl 1,7-diphenyl-1,2,3,5,6,7-hexahydropyrido[3,2,1-ij]quinolin-9-ylcarbamate]",100,–,–
"CCCCOC(=O)Nc1cc2c3c(c1)C(c1ccccc1)CCN3CCC2c1ccccc1 (stereo not shown) [Compound 276, Butyl 1,7-diphenyl-1,2,3,5,6,7-hexahydropyrido[3,2,1-ij]quinolin-9-ylcarbamate]",101,–,–
"O=C(Nc1cc2c3c(c1)C(c1ccccc1)CCN3CCC2c1ccccc1)Oc1ccccc1 (stereo not shown) [Compound 277, Phenyl 1,7-diphenyl-1,2,3,5,6,7-hexahydropyrido[3,2,1-ij]quinolin-9-ylcarbamate]",91,–,–
"O=C(Nc1cc2c3c(c1)C(c1ccccc1)CCN3CCC2c1ccccc1)OCc1ccccc1 (stereo not shown) [Compound 278, Benzyl 1,7-diphenyl-1,2,3,5,6,7-hexahydropyrido[3,2,1-ij]quinolin-9-ylcarbamate]",101,–,–
"C#CCOC(=O)Nc1cc2c3c(c1)C(c1ccccc1)CCN3CCC2c1ccccc1 (stereo not shown) [Compound 352, Prop-2-ynyl 1,7-diphenyl-1,2,3,5,6,7-hexahydropyrido[3,2,1-ij]quinolin-9-ylcarbamate]",97,–,–
"CCCOC(=O)Nc1cc2c3c(c1)[C@@](C)(c1ccccc1)CCN3CC[C@@]2(C)c1ccccc1 [Compound 355, Propyl (1R,7S)-1,7-dimethyl-1,7-diphenyl-1,2,3,5,6,7-hexahydropyrido[3,2,1-ij]quinolin-9-ylcarbamate]",98,316,–
"CN(C)C(=O)Nc1cc2c3c(c1)C(c1ccccc1)CCN3CCC2c1ccccc1 (stereo not shown) [Compound 405, 3-(1,7-diphenyl-1,2,3,5,6,7-hexahydropyrido[3,2,1-ij]quinolin-9-yl)-1,1-dimethylurea]",98,–,–
"CCCNC(=O)c1cc2c3c(c1)C(c1ccccc1)CCN3CCC2c1ccccc1 (stereo not shown) [Compound 409, 1,7-diphenyl-N-propyl-1,2,3,5,6,7-hexahydropyrido[3,2,1-ij]quinoline-9-carboxamide]",89,874,–
"CCCCNC(=O)c1cc2c3c(c1)C(c1ccccc1)CCN3CCC2c1ccccc1 (stereo not shown) [Compound 481, N-butyl-1,7-diphenyl-1,2,3,5,6,7-hexahydropyrido[3,2,1-ij]quinoline-9-carboxamide]",98,210,–
"CCNC(=O)Nc1cc2c3c(c1)C(c1ccccc1)CCN3CCC2c1ccccc1 (stereo not shown) [Compound 484, 1-(1,7-diphenyl-1,2,3,5,6,7-hexahydropyrido[3,2,1-ij]quinolin-9-yl)-3-ethylurea]",101,–,–
"CCCCNC(=O)Nc1cc2c3c(c1)C(c1ccccc1)CCN3CCC2c1ccccc1 (stereo not shown) [Compound 485, 1-Butyl-3-(1,7-diphenyl-1,2,3,5,6,7-hexahydropyrido[3,2,1-ij]quinolin-9-yl)urea]",100,–,–
"CCCCCNC(=O)Nc1cc2c3c(c1)C(c1ccccc1)CCN3CCC2c1ccccc1 (stereo not shown) [Compound 486, 1-(1,7-diphenyl-1,2,3,5,6,7-hexahydropyrido[3,2,1-ij]quinolin-9-yl)-3-pentylurea]",100,82,–
"CCCCCCNC(=O)Nc1cc2c3c(c1)C(c1ccccc1)CCN3CCC2c1ccccc1 (stereo not shown) [Compound 487, 1-(1,7-diphenyl-1,2,3,5,6,7-hexahydropyrido[3,2,1-ij]quinolin-9-yl)-3-hexylurea]",100,–,–
"CC(C)(C)NC(=O)Nc1cc2c3c(c1)[C@@](C)(c1ccccc1)CCN3CC[C@@]2(C)c1ccccc1 [Compound 580, 1-t-butyl-3-((1R,7S)-1,7-dimethyl-1,7-diphenyl-1,2,3,5,6,7-hexahydropyrido[3,2,1-ij]quinolin-9-yl)urea]",99,–,62
